Key:
interferon [1] = settings: statement in words; cited from earlier work
acute toxicity in mice = assay type: in vivo
Method: The novel complex has low toxicity. In investigations of acute toxicity in mice, the LD50 is 900 mg per kilo body weight.

[2] = system: hemopoietic stem cells (HSC); assay: Investigation of the effect on hemopoietic stem cell: release into the blood (exogenous colony formation); assay type: in vivo, mice; settings: statement in words
Method: Investigation of the effect on hemopoietic stem cell
Compound I was diluted in physiological saline solution to a concentration of […]. Mice of the experimental groups were inoculated with 0,2 ml of one of the obtained solutions (0,5 and 1 μg/mouse respectively) intraperitoneally. Control animals were given injections of physiological saline solutions. At 1, 2, 3, 4 and 7 days after administration of the test compound, the animals were given heparin (40 units/mouse), and then specimens of the peripheral blood, spleen and bone marrow from thighbones. The blood was diluted 1:1 with physiological saline solution. Bone marrow and spleen suspensions were prepared by the standard method. The content of hemopoietic stem cells (HSC) in the blood, bone marrow and spleens of the animals treated with the preparation were tested by the method of exogenous colony formation in the spleen of syngeneic lethally irradiated recipients; more specifically, diluted peripheral blood (0,1 ml), bone marrow cells (3-5 ×10^4 cells) or spleen cells (5×10^5 cells) were inoculated to lethally irradiated syngeneic recipients which were killed at 8-9 days; their spleens were removed, fixed in Bouin's solution, and the number of visible plaques or colonies developing from HSC was counted.

[3] = system: hemopoietic stem cells (HSC); assay: Effect on proliferation of HSC (S-phase, oxyurea treatment); assay type: in vivo, mice; settings: statement in words
[4] = system: Staphylococcus aureus Wood 46; assay: Investigation of the staphylococcal activity; assay type: in vivo, CBA mice infected with Staphylococcus aureus Wood 46; settings: dose of 1 μg; statement in words
Method: Investigation of the staphylococcal activity
The preparation was inoculated subcutaneously to CBA mice in doses from 0,1 to 10 μg per mouse, after which the animals were inoculated with 1,25×10^6 microbial cells of Staphylococcus aureus Wood 46.

distemper = assay: Investigation of clinical effectiveness in dogs with distemper; assay type: in vivo; settings: 2-4 ml of 0,5% solution intramuscularly twice daily for 3-10 days
Method: Investigation of clinical effectiveness in dogs with distemper
Dogs with an established diagnosis of distemper (duration of the disease from 10 to 30 days; in 3 animals--the intestinal form of the disease, in 2- pulmonary form, and in 3 animals--the neuro-paralytic stage) were inoculated intramuscularly with 2-4 ml (depending on the animal's weight) of 0,5% solution of the test compound I in distilled water twice daily for 3-10 days.

[5] = system: α, β, γ interferons in mouse serum
Method: Investigation of induction of α, β, γ interferons in mouse serum in vivo
The level of interferon synthesis in the blood serum was determined at various intervals (5, 24, 48, 72 hours). Interferon titrations were carried out in L-929 cell cultures. The test virus was mouse encephalomyocarditis virus.

interferon [6] = settings: mice, oral administration; cited from earlier work
γ-interferon = settings: suspension of mononuclear cells in vitro; cited from earlier work

For `CCC[O][Ge]1([OH])[O]C(=O)c2cccc(n2)C(=O)[O]1` [2,6-pyridinediyl-biscarbonylox-(hydroxypropoxygermanium)], the “immune interferon inducer properties” value (interferon [1]) is listed as “possessing the properties of an immune interferon inducer” and the immunomodulating activity (interferon [1]) is listed as “narrow spectrum of the immunomodulating activity”.
For `O=C1[O][Ge]2([O]C(=O)c3cccc1n3)[O]C(=O)c1cccc(n1)C(=O)[O]2` [Compound I, germanium bis(pyridine-2,6-dicarboxylate)], the LD50 (acute toxicity in mice; mouse, in vivo, mice, acute toxicity) was 900 mg/kg, the toxicity (acute toxicity in mice; statement in words) was “low toxicity” and the “number of HSC in the blood” value [2] was “increases the number of HSC in the blood”. For the same molecule, the “capacity to stimulate HSC release into the S-phase” value [3] was “No capacity to stimulate HSC release into the S-phase was demonstrated”, the “resistance of mice to staphylococcus” value [4] was “enhances the resistance of mice to staphylococcus” and the clinical outcome (distemper) was “all the animals became clinically normal”. For the same molecule, the solubility in chloroform (solubility; chloroform) was “insoluble”, the solubility in diethylformamide (solubility; diethylformamide) was “moderately soluble” and the “solubility in dimethyl sulphoxide” value (solubility; dimethyl sulphoxide) was “moderately soluble”. The solubility in ethanol (solubility; ethanol) was “insoluble”, the solubility in ether (solubility; ether) was “insoluble” and the solubility in hydrocarbons (solubility; hydrocarbons) was “insoluble”. The solubility in water (solubility; water) was “moderately soluble”, the “γ interferon in serum” value ([5]; at later intervals postinoculation) was “at later intervals γ interferon” and the “interferons α and β in serum” value ([5]; within the first 5 hours postinoculation) was “detectable”.
For `O=C(O)C[CH2][Ge](=[O])[O][Ge](=[O])[CH2]CC(=O)O` [carboxyethylgermanium-sesquioxide], the “interferon production in the blood” value (interferon [6]) is given as “capable, upon oral administration, of inducing interferon production in the blood of mice”, the γ-interferon synthesis (γ-interferon) is given as “capable of inducing γ-interferon synthesis” and the “effectiveness as an immune interferon inducer” value (interferon [1]) is given as “low effectiveness as an immune interferon inducer”. The toxicity (interferon [1]) was “has toxicity”.
